Data set [1] can be described thus: APP processing: AlphaLisa assay of secreted Aβ40 and Aβ42 from SP4CT cells. The class given is cell-based. The note with it: Homo sapiens, SH-SY5Y cells expressing amyloid β protein (SP4CT cells). The essentials:
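Media from compound-treated SP4CT cells (SH-SY5Y expressing amyloid β protein) was assayed by AlphaLisa. Donor beads carried biotinylated 4G8 anti-Aβ antibody; acceptor beads carried G210 (Aβ40) or 12F4 (Aβ42) in separate plates, with luminescence proportional to peptide abundance.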
(In general: Alpha assays give light when donor and acceptor beads are brought close together.)

The nature of data set [2]: Pharmacokinetics in rats, IV or PO dosing, plasma LC-MS/MS. Type of data set: in vivo, Sprague Dawley rats. The following applies: for clearance / bioavailability / half-life: Sprague Dawley; for clearance: intravenous, read-out: Rat Cl; for AUC(Norm)(0-x): dose-normalised. As to the method: Pharmacokinetic parameters are determined in Sprague Dawley rats, Beagle dogs or Rhesus monkeys by dosing the compounds intravenously (IV) or orally (PO). A dose of 0.25 mg/kg is administered either IV or PO to each subject with a dosing solution of 0.25 mg/ml in a 30:70 v/v mixture of PEG400:40% Captisol®. Plasma samples are collected at 5 min. (IV only), 15 min., 30 min., 1 h, 2 h, 4 h, 6 h, 8 h, 24 h, 48 h, 72 h, 96 h, 120 h, 144 h, and 168 h. Samples are analyzed by LC-MS/MS (API5000™) to determine the concentration in plasma. Briefly, 50 μL plasma is precipitated with 200 μL acetonitrile containing an appropriate internal standard. Samples are filtered, 500 pt of water is added to each sample and 10 μl, of this is injected on a C18 column (2.0 mm×30 mm, 3 μm particle size) and eluted using a gradient LC method with water containing 0.1% formic acid as the aqueous mobile phase, and acetonitrile containing 0.1% formic acid as the organic phase. Electrospray ionization with multiple reaction monitoring is used for MS/MS detection. Plasma concentration of the compounds is determined using a standard curve that was prepared similar to the samples in the respective matrix. Non-compartmental analysis is performed using Watson 7.2 to generate the PK parameters.

Setting [3] is: read-out: IC50, inhibition of production of Aβ40 peptide.
[4] abbreviates: read-out: IC50, inhibition of production of Aβ42 peptide.
Setting [5] is: plasma, rat, 0.25 mg/kg IV or PO.

Read-outs that look alike come from different tables or passages of the source. Some results are limits rather than exact numbers.

Turning to `CCn1nc(Oc2ccc(C(F)(F)F)cc2)cc1-c1cccc(C(C)(C)NS(=O)(=O)NCC(F)(F)F)c1` [Example 19, N-[1-(3-{1-ethyl-3-[4-(trifluoromethyl)phenoxy]-1H-pyrazol-5-yl}phenyl)-1-methylethyl]-N′-(2,2,2-trifluoroethyl)sulfamide], in data set [1] (setting [3]), the IC50 is less than 200 nM. Moreover, in data set [1] (setting [4]), the IC50 is less than 200 nM. Moreover, in data set [2] (rat, 0.25 mg/kg, plasma), the clearance amounted to 31 mL/min/kg, the half-life was 9 h and the “AUC(Norm)(0-x)” value was 0.96 µM·kg·h/mg. The bioavailability in data set [2] (setting [5]) turned out to be 75%.
`CCn1nc(-c2cccc(C3(NS(=O)(=O)NCC(F)(F)F)COC3)c2)cc1Oc1ccc(C(F)(F)F)cc1` [Example 96, N-[3-(3-{1-ethyl-5-[4-(trifluoromethyl)phenoxy]-1H-pyrazol-3-yl}phenyl)oxetan-3-yl]-N′-(2,2,2-trifluoroethyl)sulfamide]: the IC50 in data set [1] (setting [3]) was less than 200 nM. Further, the IC50 in data set [1] (setting [4]) is less than 200 nM. In data set [2] (rat, 0.25 mg/kg, plasma), the clearance worked out at 41 mL/min/kg, the half-life was 2.8 h and the “AUC(Norm)(0-x)” value turned out to be 0.09 µM·kg·h/mg. The same molecule came in with a bioavailability in data set [2] (setting [5]) of 12%.
Turning to `CCn1nc(COc2ccc(C#N)cc2)cc1-c1cccc(C(C)(C)NS(=O)(=O)NC(F)(F)F)c1` [Example 27 from WO 2004/089911 A1, reference compound], in data set [2] (rat, 0.25 mg/kg, plasma), the clearance worked out at 35 mL/min/kg, the half-life was 4.8 h and the “AUC(Norm)(0-x)” value worked out at 0.92 µM·kg·h/mg. Further, in data set [2] (setting [5]), the bioavailability was 28%.
“N-(1-{3-[1-ethyl-3-(4-fluorophenoxy)-1H-pyrazol-5-yl]phenyl}-1-methylethyl)-2,2,2-trifluoroethanesulfonamide [Example 53]”: in data set [2] (0.25 mg/kg, plasma), the “Rat Cl” value was determined as 1 mL/min/kg. Further, the “% F” value in data set [2] (rat, 0.25 mg/kg IV or PO) is on record as 70%. Also, in data set [2] (rat, 0.25 mg/kg, plasma), the “AUC(Norm)(0-x)” value amounted to 35 µM·kg·h/mg and the t1/2 came to 16 h.
In the case of `CCn1nc(COc2ccc(F)cc2)cc1-c1cccc(C(C)(C)NS(=O)(=O)NC2CCC2)c1` [Example 2 from WO 2004/089911 A1, reference compound], in data set [2] (rat, 0.25 mg/kg, plasma), the clearance came to 43 mL/min/kg, the half-life is 2.3 h and the “AUC(Norm)(0-x)” value came out at 0.79 µM·kg·h/mg. This molecule also showed a bioavailability in data set [2] (setting [5]) of 9%.
As to `CCn1nc(-c2cccc(C3(NS(=O)(=O)CC(F)(F)F)CC3)c2)cc1Oc1ccncc1` [Example 50, N-(1-{3-[1-ethyl-5-(pyridin-4-yloxy)-1H-pyrazol-3-yl]phenyl}cyclopropyl)-2,2,2-trifluoroethanesulfonamide], the IC50 in data set [1] (setting [3]) and in data set [1] (setting [4]) was less than 200 nM each time.
Regarding `Cn1nc(-c2cccc(C3(NS(=O)(=O)CC(F)(F)F)CC3)c2)cc1Oc1ccc(C(F)(F)F)cc1` [Example 106, 2,2,2-trifluoro-N-[1-(3-{1-methyl-5-[4-(trifluoromethyl)phenoxy]-1H-pyrazol-3-yl}phenyl)cyclopropyl]ethanesulfonamide], the IC50 in data set [1] (setting [3]) and in data set [1] (setting [4]) was less than 200 nM in each case.
For `CCn1nc(-c2ccc3c(c2)CC(NS(=O)(=O)NCC(F)(F)F)C3)cc1Oc1ccc(C(F)(F)F)cc1` (stereo not drawn) [Example 121], the IC50 in data set [1] (setting [3]) and in data set [1] (setting [4]) was less than 200 nM each time.
Consider `O=C(Cn1nc(-c2cccc(C3(NS(=O)(=O)CC(F)(F)F)COC3)c2)cc1Oc1ccc(C(F)(F)F)cc1)N1CCOCC1` [Example 133, N-[3-(3-{5-(4-trifluoromethylphenoxy)-1-[2-oxo-2-(morpholin-4-yl)ethyl]-1H-pyrazol-3-yl}phenyl)oxetan-3-yl]- ,2,2,2-trifluoroethanesulfonamide], for which the IC50 in data set [1] (setting [3]) and in data set [1] (setting [4]) was less than 200 nM each time.
Turning to `CCn1nc(-c2cccc(C(C)(C)NS(=O)(=O)CC(F)(F)F)c2)cc1Oc1ccc(CNCC(=O)OC)cc1` [Example 81, methyl N-[4-({1-ethyl-3-[3-(1-methyl-1-{[(2,2,2-trifluoroethyl)sulfonyl]amino}ethyl)phenyl]-1H-pyrazol-5-yl}oxy)benzyl]glycinate], the IC50 in data set [1] (setting [3]) and in data set [1] (setting [4]) was less than 200 nM throughout.
Turning to `CCn1nc(-c2cccc(C(C)(C)NS(=O)(=O)CC(F)(F)F)c2)cc1Oc1ccc(C(C)C)cc1` [Example 58, N-(1-{3-[1-ethyl-5-(4-isopropylphenoxy)-1H-pyrazol-3-yl]phenyl}-1-methylethyl)-2,2,2-trifluoroethanesulfonamide], the half-inhibitory concentration (IC50) in data set [1] (setting [3]) and in data set [1] (setting [4]) was less than 200 nM each time.
For the molecule `CCn1nc(-c2cccc(C(C)(C)NS(=O)(=O)CC(F)(F)F)c2)cc1Oc1ccc(C(F)C(F)(F)F)cc1` (stereo not drawn) [Example 72, N-[1-(3-{1-ethyl-5-[4-(1,2,2,2-tetrafluoroethyl)phenoxy]-1H-pyrazol-3-yl}phenyl)-1-methylethyl]-2,2,2-trifluoroethanesulfonamide], the IC50 in data set [1] (setting [3]) and in data set [1] (setting [4]) was less than 200 nM throughout.
`CCn1nc(-c2cccc(C(C)(C)NS(=O)(=O)CC(F)(F)F)c2)cc1Oc1ccc(C(F)F)cc1` [Example 64, N-[1-(3-{5-[4-(difluoromethyl)phenoxy]-1-ethyl-1H-pyrazol-3-yl}phenyl)-1-methylethyl]-2,2,2-trifluoroethanesulfonamide]: the IC50 in data set [1] (setting [3]) and in data set [1] (setting [4]) was less than 200 nM throughout.
As for `CCn1nc(-c2cccc(C(C)(C)NS(=O)(=O)CC(F)(F)F)c2)cc1Oc1ccc(C(F)(F)F)cc1F` [Example 5, N-[1-(3-{1-ethyl-5-[2-fluoro-4-(trifluoromethyl)phenoxy]-1H-pyrazol-3-yl}phenyl)-1-methylethyl]-2,2,2-trifluoroethanesulfonamide], the IC50 in data set [1] (setting [3]) and in data set [1] (setting [4]) was less than 200 nM throughout.
Regarding `CCn1nc(-c2cccc(C(C)(C)NS(=O)(=O)CC(F)(F)F)c2)cc1CN1CCC(C(F)(F)F)CC1` [Example 23 from WO 2004/089911 A1, reference compound], in data set [2] (rat, 0.25 mg/kg, plasma), the clearance was 120 mL/min/kg, the half-life is 5.4 h and the “AUC(Norm)(0-x)” value is 0.25 µM·kg·h/mg.
With `CCn1nc(Oc2ccc(Cl)nc2)cc1-c1cccc(C(C)(C)NS(=O)(=O)CC(F)(F)F)c1` [Example 22, N-[1-(3-{3-[(6-chloropyridin-3-yl)oxy]-1-ethyl-1H-pyrazol-5-yl]phenyl)-1-methylethyl]-2,2,2-trifluoroethanesulfonamide], the IC50 in data set [1] (setting [3]) and in data set [1] (setting [4]) was less than 200 nM each time.
As to `CCn1nc(-c2cccc(C3(NS(=O)(=O)NC)CC3)c2)cc1Oc1ccc(C(F)(F)F)cc1` [Example 48, N-[1-(3-{1-ethyl-5-[4-(trifluoromethyl)phenoxy]-1H-pyrazol-3-yl}phenyl)cyclopropyl]-N′-methylsulfamide], the IC50 in data set [1] (setting [3]) and in data set [1] (setting [4]) was less than 200 nM each time.
Regarding `CCn1nc(-c2cccc(C3(NS(=O)(=O)CC(F)(F)F)CC3)c2)cc1Oc1ncc(F)cn1` [Example 49, N-[1-(3-{1-ethyl-5-[(5-fluoropyrimidin-2-yl)oxy]-1H-pyrazol-3-yl}phenyl)cyclopropyl]-2,2,2-trifluoroethanesulfonamide], the IC50 in data set [1] (setting [3]) and in data set [1] (setting [4]) was less than 200 nM each time.

One may read the IC50 as the concentration that inhibits the measured activity by half. One may read the bioavailability as the share of a dose that reaches the circulation, judged against a reference dose that is usually intravenous. Lower therefore signals little systemic uptake. A word on the half-life: it is how long it takes for the measured level to halve. Low values mean fast loss, high ones slow loss.

(Values after patent US8871796B2, “Diaryl ether derivatives as notch sparing gamma secretase inhibitors” (Merck Sharp & Dohme Corp., priority 2009, dated 2014).)
